Experimental findings from US20160151370A1, “Substituted Benzylpyrazoles” (BAYER PHARMA AKTIENGESELLSCHAFT, priority 2013, published 2016) are described below.

For experiment [1], the target named is T1, catalytic domain of human Bub1 (amino acids 704-1085) (Homo sapiens, UniProt O43683).
T1 construct: catalytic domain of human Bub1 (amino acids 704-1085); His6 (N); made in house; host or cells: Hi5 insect cells
In words: Bub1 kinase assay (TR-FRET). Format: biochemical. As to conditions: 10 μM ATP, 1 μM peptide substrate, median value, read-out: Biological Assay 1: Bub1 kinase assay median IC50. The source says:
Bub1-inhibitory activities of compounds described in the present invention were quantified using a time-resolved fluorescence energy transfer (TR-FRET) kinase assay which measures phosphorylation of the synthetic peptide Biotin-Ahx-[…] (C-terminus in amide form), purchased from e.g. Biosyntan (Berlin, Germany) by the (recombinant) catalytic domain of human Bub1 (amino acids 704-1085), expressed in Hi5 insect cells with an N-terminal His6-tag and purified by affinity-(Ni-NTA) and size exclusion chromatography.
In a typical assay 11 different concentrations of each compound (0.1 nM, 0.33 nM, 1.1 nM, 3.8 nM, 13 nM, 44 nM, 0.15 μM, 0.51 μM, 1.7 μM, 5.9 μM and 20 μM) were tested in duplicate within the same microtiter plate. To this end, 100-fold concentrated compound solutions (in DMSO) were previously prepared by serial dilution (1:3.4) of 2 mM stocks in a clear low volume 384-well source microtiter plate (Greiner Bio-One, Frickenhausen, Germany), from which 50 nL of compounds were transferred into a black low volume test microtiter plate from the same supplier. Subsequently, 2 μL of Bub1 (the final concentration of Bub1 was adjusted depending on the activity of the enzyme lot in order to be within the linear dynamic range of the assay: typically ˜200 ng/mL were used) in aqueous assay buffer [50 mM Tris/HCl pH 7.5, 10 mM magnesium chloride (MgCl2), 200 mM potassium chloride (KCl), 1.0 mM dithiothreitol (DTT), 0.1 mM sodium ortho-vanadate, 1% (v/v) glycerol, 0.01% (w/v) bovine serum albumine (BSA), 0.005% (v/v) Trition X-100 (Sigma), 1× Complete EDTA-free protease inhibitor mixture (Roche)] were added to the compounds in the test plate and the mixture was incubated for 15 min at 22° C. to allow pre-equilibration of the putative enzyme-inhibitor complexes before the start of the kinase reaction, which was initiated by the addition of 3 μL 1.67-fold concentrated solution (in assay buffer) of adenosine-tri-phosphate (ATP, 10 μM final concentration) and peptide substrate (1 μM final concentration). […] Subsequently, the amount of product was evaluated by measurement of the resonance energy transfer from the Eu-chelate-antibody complex recognizing the Phosphoserine residue to the streptavidin-XL665 bound to the biotin moiety of the peptide. To this end, the fluorescence emissions at 620 nm and 665 nm after excitation at 330-350 nm were measured in a TR-FRET plate reader, e.g. a Rubystar or Pherastar (both from BMG Labtechnologies, Offenburg, Germany) or a Viewlux (Perkin-Elmer) and the ratio of the emissions (665 nm/622 nm) was taken as indicator for the amount of phosphorylated substrate. […] IC50 values were calculated by fitting the normalized inhibition data to a 4-parameter logistic equation (Minimum, Maximum, IC50, Hill; Y=Max+(Min−Max)/(1+(X/IC50)Hill)).

The subject of experiment [2] is HeLa human cervical cancer cell line. Kind of experiment: Proliferation assay (crystal violet staining). Format: cell-based. As to conditions: 96 h, 4 days incubation, median value, read-out: Biological Assay 2: Proliferation assay (HeLa cell line) median IC50.
Procedure: Cultivated tumor cells (cells were ordered from ATCC) were plated at a density of 3000 cells/well in a 96-well multititer plate in 200 μL of growth medium supplemented 10% fetal calf serum. After 24 hours, the cells of one plate (zero-point plate) were stained with crystal violet (see below), while the medium of the other plates was replaced by fresh culture medium (200 μL), to which the test substances were added in various concentrations (0 μM, as well as in the range of 0.001-10 μM; the final concentration of the solvent dimethyl sulfoxide was 0.5%). The cells were incubated for 4 days in the presence of test substances. Cell proliferation was determined by staining the cells with crystal violet: the cells were fixed by adding 20 μL/measuring point of an 11% glutaric aldehyde solution for 15 minutes at room temperature. After three washing cycles of the fixed cells with water, the plates were dried at room temperature. The cells were stained by adding 100 μL/measuring point of a 0.1% crystal violet solution (pH 3.0). […] Absorbtion was determined by photometry at a wavelength of 595 nm. The change of cell number, in percent, was calculated by normalization of the measured values to the absorbtion values of the zero-point plate (=0%) and the absorbtion of the untreated (0 μm) cells (=100%). The IC50 values were determined by means of a 4 parameter fit.

T1 sequence (O43683 704-1085): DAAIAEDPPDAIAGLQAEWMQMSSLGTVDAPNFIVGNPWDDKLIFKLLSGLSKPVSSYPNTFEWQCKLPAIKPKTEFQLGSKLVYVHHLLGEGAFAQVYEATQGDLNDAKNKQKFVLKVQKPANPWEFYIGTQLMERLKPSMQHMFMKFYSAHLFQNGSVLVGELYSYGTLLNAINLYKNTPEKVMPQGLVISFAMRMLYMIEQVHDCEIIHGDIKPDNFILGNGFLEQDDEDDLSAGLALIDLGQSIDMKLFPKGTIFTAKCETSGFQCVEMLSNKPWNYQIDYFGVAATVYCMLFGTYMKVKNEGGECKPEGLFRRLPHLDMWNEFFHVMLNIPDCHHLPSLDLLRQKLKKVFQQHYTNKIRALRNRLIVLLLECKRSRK

`CCOc1cc(F)c(Cn2nc(-c3ncc(OCCCS(C)(=O)=NC(=O)C(F)(F)F)c(Nc4ccncc4)n3)c(C)c2C2CC2)c(F)c1` (centres unmarked) [Example 2-1-1, N-{[3-({2-[5-cyclopropyl-1-(4-ethoxy-2,6-difluorobenzyl)-4-methyl-1H-pyrazol-3-yl]-4-(pyridin-4-ylamino)pyrimidin-5-yl}oxy)propyl](methyl)oxido-λ^6-sulfanylidene}-2,2,2-trifluoroacetamide]: the IC50 in experiment [1] is 11 nM.

As for `CCOc1cc(F)c(Cn2nc(-c3ncc(OCCCS(C)(=N)=O)c(Nc4ccncc4)n3)c(C)c2C2CC2)c(F)c1` (racemic) [Example 2-2-1, 2-[5-cyclopropyl-1-(4-ethoxy-2,6-difluorobenzyl)-4-methyl-1H-pyrazol-3-yl]-5-[3-(S-methylsulfonimidoyl)propoxy]-N-(pyridin-4-yl)pyrimidin-4-amine], the IC50 came out at 8200 nM in experiment [2] and 8.4 nM in experiment [1].

Regarding `CCOc1cc(F)c(Cn2nc(-c3ncc(OCCCS(C)(=N)=O)c(Nc4ccncc4)n3)c(C)c2C2CC2)c(F)c1` (single isomer, unassigned; (-)) [Example 2-2-2, (−)-2-[5-cyclopropyl-1-(4-ethoxy-2,6-difluorobenzyl)-4-methyl-1H-pyrazol-3-yl]-5-[3-(S-methylsulfonimidoyl)propoxy]-N-(pyridin-4-yl)pyrimidin-4-amine], in experiment [1], the IC50 is 9.5 nM.

On to `CCOc1cc(F)c(Cn2nc(-c3ncc(OCCCS(C)(=N)=O)c(Nc4ccncc4)n3)c(C)c2C2CC2)c(F)c1` (single isomer, unassigned; (+)) [Example 2-2-3, (+)-2-[5-cyclopropyl-1-(4-ethoxy-2,6-difluorobenzyl)-4-methyl-1H-pyrazol-3-yl]-5-[3-(S-methylsulfonimidoyl)propoxy]-N-(pyridin-4-yl)pyrimidin-4-amine], for which the IC50 in experiment [1] is 5.7 nM.
